Results: PubChem BioAssay AID1745844 (Carcinogenic Potency Database (CPDB), 2022)
Activity calls are given as the source filed them. How the calls were made is not given here.

Tested on: rodent lifetime carcinogenesis bioassay, tumor incidence TD50
Experiment: carcinogenic potency in animals, long-term in vivo studies, CPDB compilation (AID 1745844)

Question: Which TD50 (hamster, strain Syrian Golden, females, in drinking water, site: any site (literature study), lesion: several types, types named in the paper, dosed 104 weeks, study length 104 weeks) does the source give for O=NN1CCOCC1 here?
Answer: 1.48 mg/kg/day

Question: What about the TD50 (hamster, strain Syrian Golden, females, in drinking water, site: larynx, lesion: several types, types named in the paper, dosed 104 weeks, study length 104 weeks) of the same molecule?
Answer: 15.4 mg/kg/day

Question: And the TD50 (hamster, strain Syrian Golden, females, in drinking water, site: liver, lesion: several types, types named in the paper, dosed 104 weeks, study length 104 weeks)?
Answer: 51.6 mg/kg/day

Question: And the TD50 (hamster, strain Syrian Golden, females, in drinking water, site: respiratory system, lesion: several types, types named in the paper, dosed 104 weeks, study length 104 weeks)?
Answer: 1.35 mg/kg/day

Question: What about the TD50 (hamster, strain Syrian Golden, females, in drinking water, site: trachea, lesion: mixed-cell mucoepidermoid papilloma, dosed 104 weeks, study length 104 weeks) of the same molecule?
Answer: 11.3 mg/kg/day

Question: And the TD50 (hamster, strain Syrian Golden, males, in drinking water, site: any site (literature study), lesion: several types, types named in the paper, dosed 104 weeks, study length 104 weeks)?
Answer: 5.56 mg/kg/day

Question: What about the TD50 (hamster, strain Syrian Golden, males, in drinking water, site: larynx, lesion: several types, types named in the paper, dosed 104 weeks, study length 104 weeks) of the same molecule?
Answer: 11.5 mg/kg/day

Question: And the TD50 (hamster, strain Syrian Golden, males, in drinking water, site: liver, lesion: several types, types named in the paper, dosed 104 weeks, study length 104 weeks)?
Answer: 9.14 mg/kg/day

Question: And the TD50 (hamster, strain Syrian Golden, males, in drinking water, site: respiratory system, lesion: several types, types named in the paper, dosed 104 weeks, study length 104 weeks)?
Answer: 5.98 mg/kg/day

Question: What about the TD50 (hamster, strain Syrian Golden, males, in drinking water, site: trachea, lesion: mixed-cell mucoepidermoid papilloma, dosed 104 weeks, study length 104 weeks) of the same molecule?
Answer: 7.98 mg/kg/day

Question: What about the TD50 (rat, strain Fischer 344, females, in drinking water, site: adrenal medulla, lesion: pheochromocytoma, dosed 45 weeks, study length 126 weeks) of the same molecule?
Answer: 0.325 mg/kg/day

Question: What about the TD50 (rat, strain Fischer 344, females, in drinking water, site: adrenal medulla, lesion: pheochromocytoma, dosed 100 weeks, study length 126 weeks) of the same molecule?
Answer: 1.07 mg/kg/day

Question: What about the TD50 (rat, strain Fischer 344, females, in drinking water, site: esophagus, lesion: several types, types named in the paper, dosed 45 weeks, study length 126 weeks) of the same molecule?
Answer: 1.97 mg/kg/day

Question: And the TD50 (rat, strain Fischer 344, females, in drinking water, site: esophagus, lesion: squamous-cell papilloma, dosed 45 weeks, study length 126 weeks)?
Answer: 2.53 mg/kg/day

Question: What about the TD50 (rat, strain Fischer 344, females, in drinking water, site: liver, lesion: hemangiosarcoma, dosed 45 weeks, study length 126 weeks) of the same molecule?
Answer: 0.666 mg/kg/day

Question: What about the TD50 (rat, strain Fischer 344, females, in drinking water, site: liver, lesion: hemangiosarcoma, dosed 50 weeks, study length 73 weeks) of the same molecule?
Answer: 0.348 mg/kg/day

Question: And the TD50 (rat, strain Fischer 344, females, in drinking water, site: liver, lesion: hemangiosarcoma, dosed 100 weeks, study length 126 weeks)?
Answer: 0.63 mg/kg/day

Question: What about the TD50 (rat, strain Fischer 344, females, in drinking water, site: liver, lesion: hepatocellular carcinoma, dosed 45 weeks, study length 126 weeks) of the same molecule?
Answer: 0.564 mg/kg/day

Question: What about the TD50 (rat, strain Fischer 344, females, in drinking water, site: liver, lesion: hepatocellular carcinoma, dosed 50 weeks, study length 73 weeks) of the same molecule?
Answer: 0.0805 mg/kg/day

Question: What about the TD50 (rat, strain Fischer 344, females, in drinking water, site: liver, lesion: hepatocellular carcinoma, dosed 100 weeks, study length 126 weeks) of the same molecule?
Answer: 0.431 mg/kg/day

Question: What about the TD50 (rat, strain Fischer 344, females, in drinking water, site: liver, lesion: neoplastic nodule, dosed 45 weeks, study length 126 weeks) of the same molecule?
Answer: 1.28 mg/kg/day

Question: What about the TD50 (rat, strain Fischer 344, females, in drinking water, site: liver, lesion: neoplastic nodule, dosed 100 weeks, study length 126 weeks) of the same molecule?
Answer: 0.239 mg/kg/day

Question: What about the TD50 (rat, strain Fischer 344, females, in drinking water, site: liver, lesion: several types, types named in the paper, dosed 45 weeks, study length 126 weeks) of the same molecule?
Answer: 0.14 mg/kg/day

Question: And the carcinogen call (rat, strain Fischer 344, females, in drinking water, site: liver, lesion: several types, types named in the paper, dosed 50 weeks, study length 73 weeks)?
Answer: positive

Question: And the TD50 (rat, strain Fischer 344, females, in drinking water, site: liver, lesion: several types, types named in the paper, dosed 100 weeks, study length 126 weeks)?
Answer: 0.127 mg/kg/day

Question: And the TD50 (rat, strain Fischer 344, females, in drinking water, site: thyroid gland, lesion: c-cell carcinoma, dosed 45 weeks, study length 126 weeks)?
Answer: 0.363 mg/kg/day

Question: What about the TD50 (rat, strain Fischer 344, females, in drinking water, site: thyroid gland, lesion: follicular-cell adenoma, dosed 100 weeks, study length 126 weeks) of the same molecule?
Answer: 0.581 mg/kg/day

Question: What about the TD50 (rat, strain Fischer 344, females, in drinking water, site: tongue, lesion: several types, types named in the paper, dosed 45 weeks, study length 126 weeks) of the same molecule?
Answer: 6.54 mg/kg/day

Question: And the TD50 (rat, strain Fischer 344, females, in drinking water, site: tongue, lesion: squamous-cell papilloma, dosed 45 weeks, study length 126 weeks)?
Answer: 50.2 mg/kg/day

Question: And the TD50 (rat, strain Fischer 344, females, in drinking water, site: tongue, lesion: squamous-cell papilloma, dosed 100 weeks, study length 126 weeks)?
Answer: 3.49 mg/kg/day

Question: How did the TD50 (hamster, strain Syrian Golden, males, in feed, site: forestomach, lesion: squamous-cell papilloma, dosed 48 weeks, study length 70 weeks) turn out when O=CNNc1nc(-c2ccc([N+](=O)[O-])o2)cs1 was run?
Answer: 25.1 mg/kg/day

Question: And the TD50 (hamster, strain Syrian Golden, males, in feed, site: urinary bladder, lesion: transitional-cell carcinoma, dosed 48 weeks, study length 70 weeks)?
Answer: 16.6 mg/kg/day

Question: And the TD50 (mouse, strain Swiss, females, in feed, site: all sites, lesion: leukemia, dosed 33 weeks, study length 52 weeks)?
Answer: 25.6 mg/kg/day

Question: And the TD50 (mouse, strain Swiss, females, in feed, site: all sites, lesion: lymphocytic leukemia, dosed 33 weeks, study length 52 weeks)?
Answer: 11.4 mg/kg/day

Question: And the TD50 (mouse, strain Swiss, females, in feed, site: any site (literature study), lesion: several types, types named in the paper, dosed 33 weeks, study length 52 weeks)?
Answer: 2.42 mg/kg/day

Question: What about the TD50 (mouse, strain Swiss, females, in feed, site: forestomach, lesion: papilloma, dosed 33 weeks, study length 52 weeks) of the same molecule?
Answer: 13.8 mg/kg/day

Question: And the TD50 (mouse, strain Swiss, females, in feed, site: forestomach, lesion: squamous-cell papilloma, dosed 33 weeks, study length 52 weeks)?
Answer: 8.85 mg/kg/day

Question: And the TD50 (mouse, strain Swiss, females, in feed, site: lung, lesion: alveolar-cell carcinoma, dosed 33 weeks, study length 52 weeks)?
Answer: 67.1 mg/kg/day

Question: And the TD50 (rat, strain Buffalo, females, in feed, site: kidney, lesion: several types, types named in the paper, dosed 46 weeks, study length 64 weeks)?
Answer: 17.5 mg/kg/day

Question: And the TD50 (rat, strain Buffalo, females, in feed, site: kidney, lesion: tubular adenoma, dosed 46 weeks, study length 64 weeks)?
Answer: 98.6 mg/kg/day

Question: What about the TD50 (rat, strain Buffalo, females, in feed, site: kidney, lesion: tubular-cell adenocarcinoma, dosed 46 weeks, study length 64 weeks) of the same molecule?
Answer: 44.1 mg/kg/day

Question: And the TD50 (rat, strain Buffalo, females, in feed, site: liver, lesion: cystadenoma, dosed 46 weeks, study length 64 weeks)?
Answer: 39.1 mg/kg/day

Question: What about the TD50 (rat, strain Buffalo, females, in feed, site: mammary gland, lesion: adenocarcinoma, dosed 46 weeks, study length 64 weeks) of the same molecule?
Answer: 13.1 mg/kg/day

Question: And the TD50 (rat, strain Buffalo, females, in feed, site: mammary gland, lesion: adenofibroma, dosed 46 weeks, study length 64 weeks)?
Answer: 80.5 mg/kg/day

Question: What about the TD50 (rat, strain Buffalo, females, in feed, site: mammary gland, lesion: several types, types named in the paper, dosed 46 weeks, study length 64 weeks) of the same molecule?
Answer: 5.54 mg/kg/day

Question: And the TD50 (rat, strain Holtzman albino (Sprague-Dawley derived), females, in feed, site: cecum, lesion: adenocarcinoma, dosed 44 weeks, study length 60 weeks)?
Answer: 210 mg/kg/day

Question: And the TD50 (rat, strain Holtzman albino (Sprague-Dawley derived), females, in feed, site: ear canal, lesion: squamous-cell carcinoma, dosed 44 weeks, study length 60 weeks)?
Answer: 100 mg/kg/day

Question: And the TD50 (rat, strain Holtzman albino (Sprague-Dawley derived), females, in feed, site: kidney, lesion: adenoma, dosed 44 weeks, study length 60 weeks)?
Answer: 17.6 mg/kg/day

Question: And the TD50 (rat, strain Holtzman albino (Sprague-Dawley derived), females, in feed, site: kidney, lesion: carcinoma, dosed 44 weeks, study length 60 weeks)?
Answer: 78.5 mg/kg/day

Question: And the TD50 (rat, strain Holtzman albino (Sprague-Dawley derived), females, in feed, site: liver, lesion: hemangioendothelial sarcoma, dosed 44 weeks, study length 60 weeks)?
Answer: 428 mg/kg/day (inactive)

Question: What about the TD50 (rat, strain Holtzman albino (Sprague-Dawley derived), females, in feed, site: mammary tissue, wider than the gland, lesion: one or several types, types not named, dosed 44 weeks, study length 60 weeks) of the same molecule?
Answer: 5.5 mg/kg/day

Question: And the TD50 (rat, strain Holtzman albino (Sprague-Dawley derived), females, in feed, site: small intestine, lesion: adenocarcinoma, dosed 44 weeks, study length 60 weeks)?
Answer: 78.5 mg/kg/day

Question: And the TD50 (rat, strain Sprague-Dawley, females, in feed, site: all sites, lesion: lymphoblastic lymphoma, dosed 45 weeks, study length 75 weeks)?
Answer: 184 mg/kg/day

Question: What about the TD50 (rat, strain Sprague-Dawley, females, in feed, site: any site (literature study), lesion: several types, types named in the paper, dosed 45 weeks, study length 75 weeks) of the same molecule?
Answer: 3.79 mg/kg/day

Question: What about the TD50 (rat, strain Sprague-Dawley, females, in feed, site: forestomach, lesion: squamous-cell papilloma, dosed 45 weeks, study length 75 weeks) of the same molecule?
Answer: 65.4 mg/kg/day

Question: And the TD50 (rat, strain Sprague-Dawley, females, in feed, site: kidney/pelvis, lesion: transitional-cell carcinoma, dosed 45 weeks, study length 75 weeks)?
Answer: 137 mg/kg/day

Question: And the TD50 (rat, strain Sprague-Dawley, females, in feed, site: kidney, lesion: renal-cell carcinoma, dosed 45 weeks, study length 75 weeks)?
Answer: 65.4 mg/kg/day

Question: What about the TD50 (rat, strain Sprague-Dawley, females, in feed, site: kidney, lesion: several types, types named in the paper, dosed 46 weeks, study length 64 weeks) of the same molecule?
Answer: 9.96 mg/kg/day

Question: And the TD50 (rat, strain Sprague-Dawley, females, in feed, site: kidney, lesion: tubular adenoma, dosed 46 weeks, study length 64 weeks)?
Answer: 50.7 mg/kg/day

Question: What about the TD50 (rat, strain Sprague-Dawley, females, in feed, site: kidney, lesion: tubular-cell adenocarcinoma, dosed 46 weeks, study length 64 weeks) of the same molecule?
Answer: 33.9 mg/kg/day

Question: What about the TD50 (rat, strain Sprague-Dawley, females, in feed, site: liver, lesion: cystadenoma, dosed 46 weeks, study length 64 weeks) of the same molecule?
Answer: 43.9 mg/kg/day

Question: What about the carcinogen call (rat, strain Sprague-Dawley, females, in feed, site: liver, lesion: one or several types, types not named, dosed 45 weeks, study length 75 weeks) of the same molecule?
Answer: negative (inactive)

Question: What about the TD50 (rat, strain Sprague-Dawley, females, in feed, site: liver, lesion: several types, types named in the paper, dosed 46 weeks, study length 64 weeks) of the same molecule?
Answer: 30.1 mg/kg/day

Question: And the TD50 (rat, strain Sprague-Dawley, females, in feed, site: mammary gland, lesion: adenocarcinoma, dosed 45 weeks, study length 75 weeks)?
Answer: 3.54 mg/kg/day

Question: What about the TD50 (rat, strain Sprague-Dawley, females, in feed, site: mammary gland, lesion: adenocarcinoma, dosed 46 weeks, study length 64 weeks) of the same molecule?
Answer: 19.5 mg/kg/day

Question: And the TD50 (rat, strain Sprague-Dawley, females, in feed, site: mammary gland, lesion: adenofibroma, dosed 46 weeks, study length 64 weeks)?
Answer: 52.8 mg/kg/day

Question: And the TD50 (rat, strain Sprague-Dawley, females, in feed, site: mammary gland, lesion: several types, types named in the paper, dosed 46 weeks, study length 64 weeks)?
Answer: 5.85 mg/kg/day

Question: What about the TD50 (rat, strain Sprague-Dawley, males, in feed, site: kidney/pelvis, lesion: transitional-cell carcinoma, dosed 46 weeks, study length 64 weeks) of the same molecule?
Answer: 69.9 mg/kg/day

Question: And the TD50 (rat, strain Sprague-Dawley, males, in feed, site: kidney, lesion: several types, types named in the paper, dosed 46 weeks, study length 64 weeks)?
Answer: 5.82 mg/kg/day

Question: And the TD50 (rat, strain Sprague-Dawley, males, in feed, site: kidney, lesion: tubular adenoma, dosed 46 weeks, study length 64 weeks)?
Answer: 47.6 mg/kg/day

Question: And the TD50 (rat, strain Sprague-Dawley, males, in feed, site: kidney, lesion: tubular-cell adenocarcinoma, dosed 46 weeks, study length 64 weeks)?
Answer: 19.3 mg/kg/day

Question: What about the TD50 (rat, strain Sprague-Dawley, males, in feed, site: liver, lesion: cystadenoma, dosed 46 weeks, study length 64 weeks) of the same molecule?
Answer: 35.3 mg/kg/day

Question: And the TD50 (rat, strain Sprague-Dawley, males, in feed, site: mammary gland, lesion: adenofibroma, dosed 46 weeks, study length 64 weeks)?
Answer: 46.2 mg/kg/day
